Article PMC10017042 (Science Advances, 2023)
Values joined by “and” are separate entries in the source; they are usually repeats but may differ in a detail not shown here. Equal entries are not always repeated. Where two headings read alike, the source gives them in different places.

How the values were obtained:
[1] = Plasma drug concentrations (pyrimethamine UPLC-MS/MS, VPA assay, unbound dolutegravir) in trial participants; assay type: in vivo, human; settings: for Drug detectable in plasma: day 42 (28 days after end of treatment); for concentration at 6 h / concentration at 14 day: human, plasma, oral; for concentration at 14 day: day 14; for PLWH with VPA plasma levels exceeding the therapeutic window (up to 100 mg/liter): day 7
Experimental: Self-reported adherence was assessed at each study visit, and empty pill strips were collected after the 2-week intervention phase. […] A gradient (0.3 ml/min) with two eluents was used (A: 2 mM ammonium acetate + 0.1% formic acid in water; B: 2 mM ammonium acetate + 0.1% formic acid in methanol). […] For measurement validation, we performed linearity, correctness, LOD and lower LOQ, repeatability, reproducibility, measurement uncertainty, robustness, and carryover. […] Unbound dolutegravir plasma concentrations were quantified with a validated UPLC-MS/MS bioquantification method as previously described ([61]).

HIV-1 = settings: for Change in inducible reservoir size: day 0 versus day 42; for TILDA reservoir, cells with multiply spliced HIV-RNA detectable per million CD4+ T-cells, >1year / TILDA reservoir, cells with multiply spliced HIV-RNA detectable per million CD4+ T-cells, Day 42 / TILDA reservoir, cells with multiply spliced HIV-RNA detectable per million CD4+ T-cells, Day 0, 0 hour: individual participants, one value each; for TILDA reservoir, cells with multiply spliced HIV-RNA detectable per million CD4+ T-cells, >1year: >1 year after end of treatment; for TILDA reservoir, cells with multiply spliced HIV-RNA detectable per million CD4+ T-cells, Day 0, 0 hour: pretreatment baseline
Experimental: Here, the measurement from the cells obtained >1 year after the last visit was used.
The frequency of CD4^+ T cells expressing MS HIV-1 RNA was determined using TILDA with some modifications to the protocol described previously by our group ([68]). Briefly, total CD4^+ T cells were isolated from PBMCs by negative magnetic selection using EasySep CD4^+ Human CD4^+ T Cell Enrichment kit ([…] Technologies). Following isolation, 1.5 × 10^6 CD4^+ T cells/ml were rested in complete RPMI 1640 for 5 to 8 hours before 12 hours of stimulation with PMA (100 ng/ml) and ionomycin (1 μg/ml) (both from Sigma-Aldrich). After stimulation, CD4^+ T cells were washed and resuspended in serum-free RPMI 1640. Cells were counted and serially diluted accordingly: 1.8 × 10^6 cells/ml, 9 × 10^5 cells/ml, 3 × 10^5 cells/ml, and 1 × 10^5 cells/m. […] In the preamplification reaction, 10 μl of the cell suspension from each dilution was dispensed into 24 to 48 wells of a 96-well plate containing 2 μl of one-step RT-PCR enzyme (Qiagen), 10 μl of 5× one-step RT-PCR buffer (Qiagen), 10 μl of Triton X-100 (0.3%), 0.25 μl of RNAsin (40 U/μl), 2 μl of dNTPs (10 mM each), 1 μl of tat1.4 forward primer (20 μM) and rev reverse primer (20 μM) (as published), and nuclease-free water to a final reaction volume of 50 μl. The one-step RT-PCR was run using the following thermocycling conditions: 50°C for 30 min, 95°C for 15 min, followed by 25 cycles of 95°C for 1 min, 55°C for 1 min, and 72°C for 2 min, and a final extension at 72°C for 5 min. After preamplification, 2 μl of the products was used as input for the real-time PCR to detect tat/rev MS HIV-1 RNA in a final reaction volume of 20 μl, which consisted of 5 μl of 4× TaqMan Fast Advanced Master mix (Thermo Fisher Scientific), 0.4 μl of tat2.0 forward primer, rev reverse primer (each at 20 μM), and MS tat/rev probe (5 μM). The real-time PCR was performed using the following program: 50°C for 5 min, 95°C for 20 s, followed by 45 cycles of 95°C for 3 s and 60°C for 30 s. Positive wells at each dilution were recorded and used to determine the frequency of cells expressing tat/rev MS HIV-1 RNA by the maximum likelihood method.

## CCc1nc(N)nc(N)c1-c1ccc(Cl)cc1 [pyrimethamine]
[1]; PLWH on efavirenz- or nevirapine-containing cART
  Median plasma concentration of pyrimethamine with CYP3A inducers: did not have lower
[1]
  Drug detectable in plasma: No pyrimethamine or VPA was detectable
[1]; 200 mg, Median plasma total pyrimethamine concentration, 6 hours after first dose (200 mg), pyrimethamine alone, seven participants
  concentration at 6 h: 1630 ng/mL
[1]; 200 mg, Median pyrimethamine Ctrough by integrase inhibitor exposure, 6 hours, group printed first of 'versus' pair
  concentration at 6 h: 1300 ng/mL
[1]; 200 mg, Median pyrimethamine Ctrough by integrase inhibitor exposure, 6 hours, group printed second of 'versus' pair
  concentration at 6 h: 1400 ng/mL
[1]; Median plasma total pyrimethamine concentration, 6 hours after first dose, combination arm with VPA
  concentration at 6 h: 1160 ng/mL
[1]; Median pyrimethamine Ctrough by integrase inhibitor exposure, uninterrupted pyrimethamine, group printed first
  concentration at 14 day: 2800 ng/mL
[1]; Median pyrimethamine Ctrough by integrase inhibitor exposure, uninterrupted pyrimethamine, group printed second
  concentration at 14 day: 3200 ng/mL
[1]; Median pyrimethamine Ctrough, combination arm with VPA, four PLWH with uninterrupted exposure
  concentration at 14 day: 1990 ng/mL
[1]; Median pyrimethamine Ctrough, monotherapy arm, six PLWH with uninterrupted exposure
  concentration at 14 day: 3480 ng/mL
[1]; Pyrimethamine plasma level, individual, LUNA-21 (combination arm), stopped treatment at day 10
  concentration at 14 day: 2520 ng/mL
HIV-1; after treatment (day 42)
  Median inducible reservoir (TILDA): 10.0 cells per million CD4+ T cells
HIV-1; before treatment (day 0)
  Median inducible reservoir (TILDA): 15.1 cells per million CD4+ T cells
HIV-1
  Change in inducible reservoir size: do not indicate a significant change
HIV-1; listed as PYR
  TILDA reservoir, cells with multiply spliced HIV-RNA detectable per million CD4+ T-cells, >1year: 19.3 per million CD4+ T-cells and 91.8 per million CD4+ T-cells and 13.9 per million CD4+ T-cells and 6.1 per million CD4+ T-cells and 22.2 per million CD4+ T-cells and 15.2 per million CD4+ T-cells
  TILDA reservoir, cells with multiply spliced HIV-RNA detectable per million CD4+ T-cells, Day 42: 8.8 per million CD4+ T-cells and 122.8 per million CD4+ T-cells and 9.0 per million CD4+ T-cells and 1.6 per million CD4+ T-cells and 22.9 per million CD4+ T-cells
  TILDA reservoir, cells with multiply spliced HIV-RNA detectable per million CD4+ T-cells, Day 0, 0 hour: 2.7 per million CD4+ T-cells and 109.8 per million CD4+ T-cells and 16.9 per million CD4+ T-cells and 11.5 per million CD4+ T-cells and 15.1 per million CD4+ T-cells and 20.1 per million CD4+ T-cells and 2.8 per million CD4+ T-cells

## CCCC(CCC)C(=O)O [valproic acid]
[1]; those who continued VPA
  PLWH with VPA plasma levels exceeding the therapeutic window (up to 100 mg/liter): three of nine
[1]; those whose therapy was adjusted for toxicity while receiving VPA
  PLWH with VPA plasma levels exceeding the therapeutic window (up to 100 mg/liter): three of the five
[1]
  Drug detectable in plasma: No pyrimethamine or VPA was detectable
[1]; 30 mg/kg per day (divided into two equal doses), 6 hours, VPA monotherapy, read-out: Median plasma total VPA concentration
  concentration at 6 h: 47300 ng/mL
[1]; 30 mg/kg per day, VPA monotherapy, six PLWH with uninterrupted exposure, read-out: Median VPA Ctrough
  concentration at 14 day: 84800 ng/mL
[1]; 6 hours, combination treatment with pyrimethamine, read-out: Median plasma total VPA concentration
  concentration at 6 h: 47400 ng/mL
[1]; combination treatment, four PLWH with uninterrupted exposure, read-out: Median VPA Ctrough
  concentration at 14 day: 113000 ng/mL
HIV-1
  Change in inducible reservoir size: remained stable
HIV-1; listed as VPA
  TILDA reservoir, cells with multiply spliced HIV-RNA detectable per million CD4+ T-cells, >1year: 2.5 per million CD4+ T-cells and 25.5 per million CD4+ T-cells and 286.2 per million CD4+ T-cells and 2.2 per million CD4+ T-cells and 19.0 per million CD4+ T-cells
  TILDA reservoir, cells with multiply spliced HIV-RNA detectable per million CD4+ T-cells, Day 42: 26.0 per million CD4+ T-cells and 12.7 per million CD4+ T-cells and 1.2 per million CD4+ T-cells and 12.9 per million CD4+ T-cells
  TILDA reservoir, cells with multiply spliced HIV-RNA detectable per million CD4+ T-cells, Day 0, 0 hour: 12.5 per million CD4+ T-cells and 100.7 per million CD4+ T-cells and 326.5 per million CD4+ T-cells and 2.5 per million CD4+ T-cells and 17.1 per million CD4+ T-cells and 3.4 per million CD4+ T-cells
